From patent US20230146675A1, “PYRIMIDO[5,4-d]PYRIMIDINE DERIVATIVES AS ENT INHIBITORS FOR THE TREATMENT OF CANCERS, AND COMBINATION THEREOF WITH ADENOSINE RECEPTOR ANTAGONISTS” (ITEOS BELGIUM SA, priority 2020, published 2023)

Target: T1, human ENT1 (Homo sapiens, UniProt Q99808)
T1 sequence (Q99808 1-456): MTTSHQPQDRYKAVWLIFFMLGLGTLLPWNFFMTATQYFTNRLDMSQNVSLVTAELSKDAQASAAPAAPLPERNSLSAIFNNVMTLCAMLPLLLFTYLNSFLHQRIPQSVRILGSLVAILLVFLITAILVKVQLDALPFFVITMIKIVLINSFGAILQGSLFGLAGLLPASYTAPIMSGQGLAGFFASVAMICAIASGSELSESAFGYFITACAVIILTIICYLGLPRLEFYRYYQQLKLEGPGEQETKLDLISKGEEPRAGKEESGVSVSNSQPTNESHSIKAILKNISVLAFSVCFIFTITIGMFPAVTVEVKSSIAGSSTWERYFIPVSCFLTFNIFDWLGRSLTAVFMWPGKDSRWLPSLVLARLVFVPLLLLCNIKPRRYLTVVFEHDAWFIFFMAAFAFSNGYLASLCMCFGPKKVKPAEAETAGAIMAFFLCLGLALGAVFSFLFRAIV
Assay: ENT1 binding assay (competition with Sahenta-DY647 on JAR cells)
Parameters: JAR cells expressing ENT1 were bought from ATCC; host or cells: JAR cells
Conditions: binned IC50
Procedure, shortened: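 JAR cells were incubated with test compounds and the fluorescent ligand Sahenta-DY647 in competition. Plates were washed twice by centrifugation (4 min, 400 rcf, 4 °C). Binding potency was derived from the final fluorescence.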

IC50	Compound
100 to 500 nM	COCCN(CCOC)c1nc(N2CC(O)(C(F)(F)F)C2)c2nc(N(CCOC)CCOC)nc(N3CCS(=O)(=O)CC3)c2n1 [Compound 192, 4-(2,6-bis(bis(2-methoxyethyl)amino)-8-(3-hydroxy-3-(trifluoromethyl)azetidin-1-yl)pyrimido[5,4-d]pyrimidin-4-yl)thiomorpholine 1,1-dioxide]
< 100 nM	COCCN(CCOC)c1nc(N2CCC(OC)CC2)c2nc(N(CCOC)CCOC)nc(OCc3cccc(OC)c3)c2n1 [Compound 153, 4-((3-methoxybenzyl)oxy)-N2,N2,N6,N6-tetrakis(2-methoxyethyl)-8-(4-methoxypiperidin-1-yl)pyrimido[5,4-d]pyrimidine-2,6-diamine]
< 100 nM	COCCN(CCOC)c1nc(N2CCc3oc(C)nc3C2)c2nc(N(CCOC)CCOC)nc(N3CCN(C)C(=O)C3)c2n1 [Compound 256, 4-(2,6-bis(bis(2-methoxyethyl)amino)-8-(2-methyl-6,7-dihydrooxazolo[4,5-c]pyridin-5(4H)-yl)pyrimido[5,4-d]pyrimidin-4-yl)-1-methylpiperazin-2-one]
< 100 nM	COCCN(CCOC)c1nc(N2CCN(C)C(=O)C2)c2nc(N(CCOC)CCOC)nc(N(C)Cc3cccc(OC(F)(F)F)c3)c2n1 [Compound 236, 4-(2,6-bis(bis(2-methoxyethyl)amino)-8-(methyl(3-(trifluoromethoxy)benzyl)amino)pyrimido[5,4-d]pyrimidin-4-yl)-1-methylpiperazin-2-one]
< 100 nM	COCCN(CCOC)c1nc(N2CCN(C)C(=O)C2)c2nc(N(CCOC)CCOC)nc(NCc3cccc(OC)c3)c2n1 [Compound 209, 4-(2,6-bis(bis(2-methoxyethyl)amino)-8-((3-methoxybenzyl)amino)pyrimido[5,4-d]pyrimidin-4-yl)-1-methylpiperazin-2-one]
< 100 nM	COCCN(CCOC)c1nc(N2C[C@@H](C)O[C@@H](C)C2)c2nc(N(CCOC)CCOC)nc(N3CCC(OC)CC3)c2n1 [Compound 110, 4-((2R,6S)-2,6-dimethylmorpholino)-N2,N2,N6,N6-tetrakis(2-methoxyethyl)-8-(4-methoxypiperidin-1-yl)pyrimido[5,4-d]pyrimidine-2,6-diamine]
100 to 500 nM	COCCN(CCOC)c1nc(N2CCC(OC)CC2)c2nc(N(CCO)CCN(C)C(C)=O)nc(N3CCN(C)C(=O)C3)c2n1 [Compound 277, N-(2-((6-(bis(2-methoxyethyl)amino)-8-(4-methoxypiperidin-1-yl)-4-(4-methyl-3-oxopiperazin-1-yl)pyrimido[5,4-d]pyrimidin-2-yl)(2-hydroxyethyl)amino)ethyl)-N-methylacetamide]
500 to 1000 nM	COCCN(CCOC)c1nc(N2CCC(OC)CC2)c2nc(N(CCOC)CCOC)nc(NCc3cccnc3)c2n1 [Compound 62, N2,N2,N6,N6-tetrakis(2-methoxyethyl)-8-(4-methoxypiperidin-1-yl)-N4-(pyridin-3-ylmethyl)pyrimido[5,4-d]pyrimidine-2,4,6-triamine]
< 100 nM	COCCN(CCOC)c1nc(N2CCC(OC)CC2)c2nc(N(CCOC)CCOC)nc(NCc3ccccc3)c2n1 [Compound 49, N4-benzyl-N2,N2,N6,N6-tetrakis(2-methoxyethyl)-8-(4-methoxypiperidin-1-yl)pyrimido[5,4-d]pyrimidine-2,4,6-triamine]
< 100 nM	COCCN(CCOC)c1nc(N2CCN(c3nccs3)CC2)c2nc(N(CCOC)CCOC)nc(N3CCN(c4nccs4)CC3)c2n1 [Compound 1, N2,N2,N6,N6-tetrakis(2-methoxyethyl)-4,8-bis(4-(thiazol-2-yl)piperazin-1-yl)pyrimido[5,4-d]pyrimidine-2,6-diamine]
< 100 nM	COCCN(CCOC)c1nc(N2CC(=O)N(C)C(=O)C2)c2nc(N(CCO)CCO)nc(N3CCC(OC)CC3)c2n1 [Compound 308, 4-(6-(bis(2-hydroxyethyl)amino)-2-(bis(2-methoxyethyl)amino)-8-(4-methoxypiperidin-1-yl)pyrimido[5,4-d]pyrimidin-4-yl)-1-methylpiperazine-2,6-dione]
100 to 500 nM	COCCN(CCOC)c1nc(N2CCN(C)C(=O)C2)c2nc(N(CCO)CCOC)nc(N3CCC(OC)CC3)c2n1 [Compound 276, 4-(2-(bis(2-methoxyethyl)amino)-6-((2-hydroxyethyl)(2-methoxyethyl)amino)-8-(4-methoxypiperidin-1-yl)pyrimido[5,4-d]pyrimidin-4-yl)-1-methylpiperazin-2-one]
< 100 nM	COCCN(CCOC)c1nc(N2CCC(OC)CC2)c2nc(N(CCOC)CCOC)nc(NCc3cccc(OC(F)(F)F)c3)c2n1 [Compound 143, N2,N2,N6,N6-tetrakis(2-methoxyethyl)-8-(4-methoxypiperidin-1-yl)-N4-(3-(trifluoromethoxy)benzyl)pyrimido[5,4-d]pyrimidine-2,4,6-triamine]
100 to 500 nM	COCCN(CCOC)c1nc(N2CCC(OC)CC2)c2nc(N3CCN(c4ncccc4N)CC3)nc(N3CCN(C)C(=O)C3)c2n1 [Compound 293, 4-(2-(4-(3-aminopyridin-2-yl)piperazin-1-yl)-6-(bis(2-methoxyethyl)amino)-8-(4-methoxypiperidin-1-yl)pyrimido[5,4-d]pyrimidin-4-yl)-1-methylpiperazin-2-one]
500 to 1000 nM	COCCN(CCOC)c1nc(N2CCN(C)C(=O)C2)c2nc(N(CCOC)CCOC)nc(NCc3cccc(S(C)(=O)=O)c3)c2n1 [Compound 212, 4-(2,6-bis(bis(2-methoxyethyl)amino)-8-((3-(methylsulfonyl)benzyl)amino)pyrimido[5,4-d]pyrimidin-4-yl)-1-methylpiperazin-2-one]
100 to 500 nM	COCCN(CCOC)c1nc(N2CCC(OC)CC2)c2nc(N(CCO)CCO)nc(N3CC(=O)N(C)C(C)C3)c2n1 (centres unmarked) [Compound 309, 4-(2-(bis(2-hydroxyethyl)amino)-6-(bis(2-methoxyethyl)amino)-8-(4-methoxypiperidin-1-yl)pyrimido[5,4-d]pyrimidin-4-yl)-1,6-dimethylpiperazin-2-one]
500 to 1000 nM	COCCN(CCOC)c1nc(N2CCC(OC)CC2)c2nc(N(CCOC)CCOC)nc(NCCC(C)(C)O)c2n1 [Compound 178, 4-((2,6-bis(bis(2-methoxyethyl)amino)-8-(4-methoxypiperidin-1-yl)pyrimido[5,4-d]pyrimidin-4-yl)amino)-2-methylbutan-2-ol]
< 100 nM	COCCN(CCOC)c1nc(NCc2cccc(F)c2)c2nc(N(CCO)CCO)nc(N3CCC(OC)CC3)c2n1 [Compound 324, 2,2′-((6-(bis(2-methoxyethyl)amino)-8-((3-lluorobenzyl)amino)-4-(4-methoxypiperidin-1-yl)pyrimido[5,4-d]pyrimidin-2-yl)azanediyl)bis(ethan-1-ol)]
100 to 500 nM	COCCN(CCOC)c1nc(N2CCc3c(ncn3C)C2)c2nc(N(CCOC)CCOC)nc(N3CCN(C)C(=O)C3)c2n1 [Compound 253, 4-(2,6-bis(bis(2-methoxyethyl)amino)-8-(1-methyl-1,4,6,7-tetrahydro-5H-imidazo[4,5-c]pyridin-5-yl)pyrimido[5,4-d]pyrimidin-4-yl)-1-methylpiperazin-2-one]
500 to 1000 nM	COCCN(CCOC)c1nc(N2CCC(OC)CC2)c2nc(N(CCOC)CCOC)nc(NCc3ccc(C(F)(F)F)nc3)c2n1 [Compound 53, N2,N2,N6,N6-tetrakis(2-methoxyethyl)-8-(4-methoxypiperidin-1-yl)-N4-((6-(trifluoromethyl)pyridin-3-yl)methyl)pyrimido[5,4-d]pyrimidine-2,4,6-triamine]
< 100 nM	CCN(CC)c1nc(N(CCOC)CCOC)nc2c(N3CCC(OC)CC3)nc(N(CCOC)CCOC)nc12 [Compound 85, N4,N4-diethyl-N2,N2,N6,N6-tetrakis(2-methoxyethyl)-8-(4-methoxypiperidin-1-yl)pyrimido[5,4-d]pyrimidine-2,4,6-triamine]
100 to 500 nM	COCCN(CCOC)c1nc(N2CC[C@@H](F)C2)c2nc(N(CCOC)CCOC)nc(N3CCC(OC)CC3)c2n1 [Compound 103, (R)-4-(3-fluoropyrrolidin-1-yl)-N2,N2,N6,N6-tetrakis(2-methoxyethyl)-8-(4-methoxypiperidin-1-yl)pyrimido[5,4-d]pyrimidine-2,6-diamine]
100 to 500 nM	COCCN(CCOC)c1nc(N2CCC(OC)CC2)c2nc(N(CCOC)CCOC)nc(NCCc3cccnc3)c2n1 [Compound 63, N2,N2,N6,N6-tetrakis(2-methoxyethyl)-8-(4-methoxypiperidin-1-yl)-N4-(2-(pyridin-3-yl)ethyl)pyrimido[5,4-d]pyrimidine-2,4,6-triamine]
500 to 1000 nM	COCCN(CCOC)c1nc(N2CCC(OC)CC2)c2nc(N(CCOC)CCOC)nc(NCCCCCC#N)c2n1 [Compound 182, 6-((2,6-bis(bis(2-methoxyethyl)amino)-8-(4-methoxypiperidin-1-yl)pyrimido[5,4-d]pyrimidin-4-yl)amino)hexanenitrile]
100 to 500 nM	COCCN(CCOC)c1nc(N2CCC(OC)CC2)c2nc(OCc3ccnc(C)c3)nc(N3CCC(OC)CC3)c2n1 [Compound 262, N,N-bis(2-methoxyethyl)-4,8-bis(4-methoxypiperidin-1-yl)-6-((2-methylpyridin-4-yl)methoxy)pyrimido[5,4-d]pyrimidin-2-amine]
100 to 500 nM	COCCN(CCOC)c1nc(N2CCN(c3nc(C)no3)CC2)c2nc(N(CCOC)CCOC)nc(N3CCN(c4nc(C)no4)CC3)c2n1 [Compound 129, N2,N2,N6,N6-tetrakis(2-methoxyethyl)-4,8-bis(4-(3-methyl-1,2,4-oxadiazol-5-yl)piperazin-1-yl)pyrimido[5,4-d]pyrimidine-2,6-diamine]
